Assay results: ChEMBL document CHEMBL5257116, “Design, synthesis, and biological evaluation of acyl sulfonamide derivatives with spiro cycles as NaV1.7 inhibitors for antinociception” (Bioorg Med Chem, 2023)
Activity calls are given as the source filed them. The rule behind the calls is not given here.

Tests used:
[1] = biological target: T1, Sodium channel protein type 9 subunit alpha (Homo sapiens, UniProt Q15858); experiment: Inhibition of human Nav1.7 expressed in HEK293 cells at 10 uM measured for 48 hrs by whole-cell patch clamp electrophysiology assay; format: cell-based
Target sequence in this assay (Q15858 whole entry, looked up): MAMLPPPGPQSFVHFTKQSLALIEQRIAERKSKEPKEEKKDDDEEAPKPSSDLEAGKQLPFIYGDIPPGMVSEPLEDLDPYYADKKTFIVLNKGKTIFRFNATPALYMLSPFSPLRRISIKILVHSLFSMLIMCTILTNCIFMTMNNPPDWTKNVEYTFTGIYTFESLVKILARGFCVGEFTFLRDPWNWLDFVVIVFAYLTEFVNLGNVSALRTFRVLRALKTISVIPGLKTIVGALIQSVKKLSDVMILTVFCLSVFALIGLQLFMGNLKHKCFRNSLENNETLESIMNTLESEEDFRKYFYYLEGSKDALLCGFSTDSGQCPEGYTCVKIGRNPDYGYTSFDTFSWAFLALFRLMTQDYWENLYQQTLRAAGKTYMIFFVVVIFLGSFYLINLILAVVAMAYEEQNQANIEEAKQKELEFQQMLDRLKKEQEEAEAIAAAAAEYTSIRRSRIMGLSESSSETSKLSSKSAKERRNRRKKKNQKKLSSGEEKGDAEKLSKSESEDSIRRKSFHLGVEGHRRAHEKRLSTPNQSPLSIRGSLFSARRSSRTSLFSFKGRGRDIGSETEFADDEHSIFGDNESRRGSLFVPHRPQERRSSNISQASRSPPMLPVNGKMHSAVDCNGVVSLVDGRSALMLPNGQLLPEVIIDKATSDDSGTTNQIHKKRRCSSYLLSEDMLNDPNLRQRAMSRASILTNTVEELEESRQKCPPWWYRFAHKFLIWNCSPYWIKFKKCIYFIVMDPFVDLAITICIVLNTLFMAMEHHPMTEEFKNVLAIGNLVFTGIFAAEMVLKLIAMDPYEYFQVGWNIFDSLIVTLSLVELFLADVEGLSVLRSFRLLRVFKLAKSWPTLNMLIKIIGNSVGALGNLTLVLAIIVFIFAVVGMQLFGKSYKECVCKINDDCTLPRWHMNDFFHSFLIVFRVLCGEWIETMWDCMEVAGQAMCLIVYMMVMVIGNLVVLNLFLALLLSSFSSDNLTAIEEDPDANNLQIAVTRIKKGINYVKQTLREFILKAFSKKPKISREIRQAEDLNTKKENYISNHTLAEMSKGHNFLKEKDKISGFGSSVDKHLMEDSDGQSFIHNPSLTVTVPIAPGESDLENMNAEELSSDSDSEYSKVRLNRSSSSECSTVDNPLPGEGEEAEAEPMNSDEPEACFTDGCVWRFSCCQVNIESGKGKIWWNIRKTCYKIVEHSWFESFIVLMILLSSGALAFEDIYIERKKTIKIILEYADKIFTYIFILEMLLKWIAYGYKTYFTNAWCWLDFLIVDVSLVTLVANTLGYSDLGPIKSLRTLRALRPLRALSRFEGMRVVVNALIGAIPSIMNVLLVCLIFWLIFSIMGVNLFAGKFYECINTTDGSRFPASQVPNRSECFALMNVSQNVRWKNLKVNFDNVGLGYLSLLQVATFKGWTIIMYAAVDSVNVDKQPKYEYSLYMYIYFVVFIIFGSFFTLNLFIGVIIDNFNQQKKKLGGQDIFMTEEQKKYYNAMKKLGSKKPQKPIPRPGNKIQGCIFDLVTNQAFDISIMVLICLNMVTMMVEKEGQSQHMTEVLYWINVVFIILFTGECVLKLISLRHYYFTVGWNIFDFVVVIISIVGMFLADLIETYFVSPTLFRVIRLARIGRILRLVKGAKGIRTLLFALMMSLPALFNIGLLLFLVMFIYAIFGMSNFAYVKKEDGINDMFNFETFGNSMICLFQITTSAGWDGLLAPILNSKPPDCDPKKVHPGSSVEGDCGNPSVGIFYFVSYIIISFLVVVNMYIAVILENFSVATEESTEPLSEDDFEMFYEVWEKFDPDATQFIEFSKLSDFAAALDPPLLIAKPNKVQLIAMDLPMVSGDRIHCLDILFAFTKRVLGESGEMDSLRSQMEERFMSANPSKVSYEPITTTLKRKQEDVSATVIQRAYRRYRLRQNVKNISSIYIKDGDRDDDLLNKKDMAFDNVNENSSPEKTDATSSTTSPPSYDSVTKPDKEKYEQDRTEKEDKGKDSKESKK

[2] = biological target: T1, Sodium channel protein type 9 subunit alpha; experiment: Inhibition of human Nav1.7 expressed in HEK293 cells at 1 uM measured for 48 hrs by whole-cell patch clamp electrophysiology assay; format: cell-based
Target sequence in this assay (Q15858 whole entry, looked up): as above

[3] = biological target: T1, Sodium channel protein type 9 subunit alpha; experiment: Inhibition of Nav1.7 (unknown origin) by whole-cell patch clamp assay
Target sequence in this assay (Q15858 whole entry): as the sequence (Q15858 whole entry, looked up) above

[4] = biological target: Sodium channel protein type 5 subunit alpha (Homo sapiens, UniProt Q14524); experiment: Inhibition of Nav1.5 (unknown origin) by whole-cell patch clamp assay
Sequence of Sodium channel protein type 5 subunit alpha (Q14524 whole entry): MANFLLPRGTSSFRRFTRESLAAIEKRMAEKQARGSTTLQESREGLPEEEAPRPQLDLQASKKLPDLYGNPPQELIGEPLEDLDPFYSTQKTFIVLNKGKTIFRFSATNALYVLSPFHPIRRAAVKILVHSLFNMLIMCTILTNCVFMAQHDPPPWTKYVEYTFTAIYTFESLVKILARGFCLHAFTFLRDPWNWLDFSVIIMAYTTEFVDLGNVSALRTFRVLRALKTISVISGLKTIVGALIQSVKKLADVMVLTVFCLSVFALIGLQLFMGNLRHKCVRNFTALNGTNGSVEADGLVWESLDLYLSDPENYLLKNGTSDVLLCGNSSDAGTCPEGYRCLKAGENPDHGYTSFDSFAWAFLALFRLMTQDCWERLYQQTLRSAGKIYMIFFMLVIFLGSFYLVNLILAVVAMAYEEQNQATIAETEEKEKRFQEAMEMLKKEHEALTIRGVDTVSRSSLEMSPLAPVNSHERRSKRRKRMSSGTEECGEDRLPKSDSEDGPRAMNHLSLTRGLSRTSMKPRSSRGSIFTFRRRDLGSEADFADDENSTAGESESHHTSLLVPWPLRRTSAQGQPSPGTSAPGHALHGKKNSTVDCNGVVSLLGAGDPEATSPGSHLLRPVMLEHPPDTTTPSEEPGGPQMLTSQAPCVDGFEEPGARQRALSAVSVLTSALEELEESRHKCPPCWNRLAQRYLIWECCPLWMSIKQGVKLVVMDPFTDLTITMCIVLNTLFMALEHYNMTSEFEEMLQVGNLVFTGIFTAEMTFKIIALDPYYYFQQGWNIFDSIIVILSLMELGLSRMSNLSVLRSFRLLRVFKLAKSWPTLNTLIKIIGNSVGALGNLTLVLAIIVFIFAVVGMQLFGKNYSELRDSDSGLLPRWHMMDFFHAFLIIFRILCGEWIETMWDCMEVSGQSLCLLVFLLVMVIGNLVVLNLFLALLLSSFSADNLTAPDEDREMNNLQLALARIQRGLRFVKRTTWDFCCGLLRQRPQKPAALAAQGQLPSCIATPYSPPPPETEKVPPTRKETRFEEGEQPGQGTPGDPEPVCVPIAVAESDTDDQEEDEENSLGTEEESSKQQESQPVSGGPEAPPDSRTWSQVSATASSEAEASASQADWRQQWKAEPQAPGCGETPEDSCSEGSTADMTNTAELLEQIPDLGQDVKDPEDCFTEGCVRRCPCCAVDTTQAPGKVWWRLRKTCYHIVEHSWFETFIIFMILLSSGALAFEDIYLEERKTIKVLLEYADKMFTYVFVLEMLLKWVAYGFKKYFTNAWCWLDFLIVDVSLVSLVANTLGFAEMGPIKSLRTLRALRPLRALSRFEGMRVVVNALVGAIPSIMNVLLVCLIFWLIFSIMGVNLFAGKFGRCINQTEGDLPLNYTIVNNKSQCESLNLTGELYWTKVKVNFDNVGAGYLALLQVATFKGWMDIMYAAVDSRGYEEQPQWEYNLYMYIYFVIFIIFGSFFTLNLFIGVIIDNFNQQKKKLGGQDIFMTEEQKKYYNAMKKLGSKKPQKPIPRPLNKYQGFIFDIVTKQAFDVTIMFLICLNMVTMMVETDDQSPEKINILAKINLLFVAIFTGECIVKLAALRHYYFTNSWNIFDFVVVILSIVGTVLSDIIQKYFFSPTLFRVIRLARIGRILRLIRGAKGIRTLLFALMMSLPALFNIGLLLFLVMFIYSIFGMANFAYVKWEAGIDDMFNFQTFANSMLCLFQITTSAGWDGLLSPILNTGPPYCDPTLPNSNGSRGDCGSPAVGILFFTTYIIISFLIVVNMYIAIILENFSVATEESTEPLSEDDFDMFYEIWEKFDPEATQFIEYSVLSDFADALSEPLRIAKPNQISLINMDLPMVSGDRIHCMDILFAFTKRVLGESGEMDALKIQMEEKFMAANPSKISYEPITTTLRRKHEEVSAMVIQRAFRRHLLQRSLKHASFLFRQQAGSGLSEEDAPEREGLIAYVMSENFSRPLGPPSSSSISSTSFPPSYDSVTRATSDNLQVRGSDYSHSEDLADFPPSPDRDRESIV

Mus musculus [5] = experiment: Antinociceptive activity in Kunming mouse at 20 mg/kg,ip measured for 1 to 4 hrs after administration by hot plate test; format: functional, organism-based; settings: time 1-4 hrs
[6] = biological target: Sodium channel protein type 4 subunit alpha (Homo sapiens, UniProt P35499); experiment: Inhibition of Nav1.4 (unknown origin) by whole-cell patch clamp assay
Mus musculus [7] = experiment: Antinociceptive activity in Kunming mouse at 10 mg/kg,ip measured for 1 to 4 hrs after administration by hot plate test; format: functional, organism-based; settings: time 1-4 hrs
Mus musculus [8] = experiment: Antinociceptive activity in Kunming mouse at 40 mg/kg,ip measured for 1 to 4 hrs after administration by hot plate test; format: functional, organism-based; settings: time 1-4 hrs
Mus musculus [9] = experiment: Antinociceptive activity in Kunming mouse assessed as inhibition of acetic acid-induced abdominal constrictions at 10 to 40 mg/kg,ip pre-administrated for 2 hrs followed by acetic acid induction and measured for 15 mins by writhing test; format: functional, organism-based; settings: dose 10-40 mg/kg, time 135.0 min
[10] = Sedative activity in Kunming mouse assessed as effect on spontaneous locomotor activity at 20 mg/kg,ip administrated for 2 hrs and measured for 30 mins by open field test; format: toxicity, organism-based; settings: in vivo, 2.5 h
Homo sapiens = species on record: Homo sapiens; experiment: Selectivity ratio of IC50 for inhibition of Nav1.7 (unknown origin) to IC50 for inhibition of Nav1.4 (unknown origin)

SMILES | inhibition [1] | inhibition [2] | further results
CCN1CCC2(CCC(CCOc3cc(F)c(C(=O)NS(=O)(=O)C4CC4)cc3Cl)C2)CC1 (stereo not given) | 24.3% |  | 
O=C(NS(=O)(=O)C1CC1)c1cc(Cl)c(OCCC2CCC3(CCN(Cc4ccsc4)CC3)C2)cc1F (stereo not given) | 95.9% | 61.4% | IC50 [3]: 0.84 µM; IC50 [4]: 54.7 µM
O=C(NS(=O)(=O)C1CC1)c1cc(Cl)c(OCCC2CCC3(CCN(Cc4ccco4)CC3)C2)cc1F (stereo not given) | 97.6% | 60% | IC50 [3]: 0.61 µM
O=C(NS(=O)(=O)C1CC1)c1cc(Cl)c(OCCC2CCC3(CCN(Cc4cc(Cl)cc(Cl)c4)CC3)C2)cc1F (stereo not given) | 77.2% |  | 
C[C@H](NCc1ccc(OCc2ccccc2F)cc1)C(N)=O [RALFINAMIDE] | 30.9% | 12.5% | IC50 [3]: 35.2 µM; Activity (Mus musculus [5]): Active
O=C(NS(=O)(=O)C1CC1)c1cc(Cl)c(OCCC2CCC3(CCN(CCCc4ccccc4)CC3)C2)cc1F (stereo not given) | 72.8% | 21.2% | 
O=C(NS(=O)(=O)C1CC1)c1cc(Cl)c(OCCC2CCC3(CCN(Cc4ccccc4)CC3)C2)cc1F (stereo not given) | 102% | 70.8% | IC50 [3]: 0.46 µM; IC50 [4]: 46.2 µM; IC50 [6]: 4.88 µM; Activity (Mus musculus [5]): Active; Activity (Mus musculus [7]): inactive; Activity (Mus musculus [8]): inactive; Activity (Mus musculus [9]): Dose-Dependent Effect; Activity [10]: Non-Toxic; Ratio IC50 (Homo sapiens): 10
O=C(NS(=O)(=O)C1CC1)c1cc(Cl)c(OCCC2CCC3(CCN(CCc4ccccc4)CC3)C2)cc1F (stereo not given) | 75.1% | 27.5% | 
COc1ccc(CN2CCC3(CCC(CCOc4cc(F)c(C(=O)NS(=O)(=O)C5CC5)cc4Cl)C3)CC2)cc1 (stereo not given) | 89.3% | 31.1% | 
O=C(NS(=O)(=O)C1CC1)c1cc(F)c(OCCC2CCC3(CCN(Cc4ccccc4)CC3)C2)cc1F (stereo not given) | 99.7% |  | IC50 [3]: 1.15 µM
O=C(NS(=O)(=O)C1CC1)c1cc(Cl)c(OCCC2CCC3(CCN(Cc4cccc5ccccc45)CC3)C2)cc1F (stereo not given) | 97.1% | 33.5% | 
Cc1cc(C(=O)NS(=O)(=O)C2CC2)c(F)cc1OCCC1CCC2(CCN(Cc3ccccc3)CC2)C1 (stereo not given) | 101% |  | IC50 [3]: 1.04 µM
O=C(NS(=O)(=O)C1CC1)c1ccc(OC2CC3(CCN(Cc4ccccc4)CC3)C2)cc1 | 21.5% |  | 
O=C(NS(=O)(=O)C1CC1)c1cc(Cl)c(OCCC2CCC3(CCN(CC4CCCCC4)CC3)C2)cc1F (stereo not given) | 65.5% | 20.1% | 
O=C(NS(=O)(=O)C1CC1)c1cc(Cl)c(OCCC2CCC3(CCN(Cc4ccc(Cl)cc4)CC3)C2)cc1F (stereo not given) | 87.2% | 23.8% | 
O=C(NS(=O)(=O)C1CC1)c1ccc(OCCC2CCC3(CCN(Cc4ccccc4)CC3)C2)cc1 (stereo not given) | 92% |  | 
O=C(NS(=O)(=O)C1CC1)c1cc(Cl)c(OCCC2CCC3(CCN(Cc4cccc(C(F)(F)F)c4)CC3)C2)cc1F (stereo not given) | 55.9% | 16.1% | 
O=C(NS(=O)(=O)C1CC1)c1cc(Cl)c(OCCC2(F)CCN(Cc3cc(Cl)cc(Cl)c3)CC2)cc1F | 89.6% |  | IC50 [3]: 1.01 µM; IC50 [4]: 58.9 µM; IC50 [6]: 2.7 µM; Ratio IC50 (Homo sapiens): 3
O=C(NS(=O)(=O)C1CC1)c1ccc(OC2CCC3(CC2)CCN(Cc2ccccc2)CC3)cc1 | 13.7% |  | 
CCc1ccc(CN2CCC3(CCC(CCOc4cc(F)c(C(=O)NS(=O)(=O)C5CC5)cc4Cl)C3)CC2)cc1 (stereo not given) | 93.9% | 29.4% | 
O=C(NS(=O)(=O)C1CC1)c1cc(C2CC2)c(OCCC2CCC3(CCN(Cc4ccccc4)CC3)C2)cc1F (stereo not given) | 96.5% |  | 
O=C(NS(=O)(=O)C1CC1)c1ccc(OCC2CCC3(CCN(Cc4ccccc4)CC3)C2)cc1 (stereo not given) | 57.4% |  | 

Further lines, with some results ahead:

inhibition [1] | inhibition [2] | SMILES | further results
24.2% |  | CCN1CCC2(CCC(CCOc3ccc(C(=O)NS(=O)(=O)C4CC4)cc3)C2)CC1 (stereo not given) | 
1.4% |  | CCN1CCC2(CCC(COc3ccc(C(=O)NS(=O)(=O)C4CC4)cc3)C2)CC1 (stereo not given) | 
22.9% |  | CCN1CCC2(CCC(Oc3ccc(C(=O)NS(=O)(=O)C4CC4)cc3)CC2)CC1 | 
11.2% |  | O=C(NS(=O)(=O)C1CC1)c1ccc(OC2CCC3(CCNCC3)CC2)cc1 | 
16.8% |  | CCN1CCC2(CCC(Oc3ccc(C(=O)NS(=O)(=O)C4CC4)cc3)C2)CC1 (stereo not given) | 
15.4% |  | O=C(NS(=O)(=O)C1CC1)c1ccc(OC2CC3(CCNCC3)C2)cc1 | 
0.2% |  | O=C(NS(=O)(=O)C1CC1)c1ccc(OCC2CCC3(CCNCC3)C2)cc1 (stereo not given) | 
14.3% |  | CCN1CCC2(CC1)CC(Oc1ccc(C(=O)NS(=O)(=O)C3CC3)cc1)C2 | 
8.4% |  | O=C(NS(=O)(=O)C1CC1)c1ccc(OCCC2CCC3(CCNCC3)C2)cc1 (stereo not given) | 
71.4% |  | O=C(NS(=O)(=O)C1CC1)c1ccc(OC2CCC3(CCNCC3)C2)cc1 (stereo not given) | 
45.7% |  | O=C(NS(=O)(=O)C1CC1)c1ccc(OC2CCC3(CCN(Cc4ccccc4)CC3)C2)cc1 (stereo not given) | 
